Earlier results on 2 molecules are cited in patent US9873913B2, “Mutation testing” (Roche Molecular Systems, Inc., priority 2013, dated 2018).

The subject of the data set is non-small cell lung cancer (NSCLC) patients. As to conditions: relatively small subset of NSCLC patients after chemotherapy.

With `C#Cc1cccc(Nc2ncnc3cc(OCCOC)c(OCCOC)cc23)c1` [erlotinib], the “effect on survival (in words)” value is given as “prolong survival”.

As to `COc1cc2ncnc(Nc3ccc(F)c(Cl)c3)c2cc1OCCCN1CCOCC1` [gefitinib], the “effect on survival (in words)” value is given as “prolong survival”.
